According to patent US10918610B2, “Compounds and methods of promoting myelination” (Case Western Reserve University, priority 2017, dated 2021):

Target: T1, EBP (Mus musculus, UniProt P70245)
T1 construct: endogenous in cells; host or cells: mouse EpiSC-derived oligodendrocyte progenitor cells (EpiSC5 line)
T1 sequence (P70245 1-230): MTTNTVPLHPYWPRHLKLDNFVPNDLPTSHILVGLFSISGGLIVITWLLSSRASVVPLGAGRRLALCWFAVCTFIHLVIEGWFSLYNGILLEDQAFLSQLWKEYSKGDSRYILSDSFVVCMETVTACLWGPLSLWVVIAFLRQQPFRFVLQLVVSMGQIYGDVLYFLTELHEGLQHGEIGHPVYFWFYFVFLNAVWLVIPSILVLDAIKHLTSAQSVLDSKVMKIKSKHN
Experiment: GC/MS-based sterol profiling in EpiSC-derived OPCs (EBP inhibition)
Assay type: cell-based
Experimental: EpiSC-derived OPCs were plated at one million cells per well in PDL- and laminin-coated six well plates with differentiation media. After 24 hours, cells were dissociated with Accutase, rinsed with saline, and cell pellets were frozen. For sterol analyses, cells were lysed in methanol (Sigma-Aldrich) with agitation for 30 minutes and cell debris removed by centrifugation at 10,000 rpm for 15 min. Cholesterol-d7 standard (25,26,26,26,27,27,27-^2H7-cholesterol, Cambridge Isotope Laboratories) was added before drying under nitrogen stream and derivatization with 55 al of bis(trimethylsilyl)trifluoroacetamide/trimethylchlorosilane to form trimethylsilyl derivatives. Following derivatization at 60° C. for 20 minutes, 1 μl was analyzed by gas chromatography/mass spectrometry using an Agilent 5973 Network Mass Selective Detector equipped with a 6890 gas chromatograph system and a HP-5MS capillary column ([…]). Samples were injected in splitless mode and analyzed using electron impact ionization. Ion fragment peaks were integrated to calculate sterol abundance, and quantitation was relative to cholesterol-d7. The following m/z ion fragments were used to quantitate each metabolite: cholesterol-d7 (465), FF-Mas (482), cholesterol (368), zymostenol (458), zymosterol (456), desmosterol (456, 343), 7-dehydrocholesterol (456, 325), lanosterol (393), lathosterol (458), 14-dehydrozymostenol (456). […] After derivatization, 1 al was analyzed by gas chromatography/mass spectrometry using an Agilent 5973 Network Mass Selective Detector equipped with a 6890 gas chromatograph system and a HP-5MS capillary column ([…]). Samples were analyzed in full scan mode using electron impact ionization; ion fragment peaks were integrated to calculate sterol abundance, and quantitation was relative to cholesterol-d7. The following ion fragments were used to quantitate each metabolite: cholesterol-d7 (465), cholesterol (368)(Sigma Aldrich), zymostenol (458), All standards were obtained from Avanti Polar Lipids unless otherwise indicated. […]

[1] = 100 nm, 24 hours, versus DMSO control

zymostenol in mouse OPCs (FIG. 5) (10 nM, 30 nM, 100 nM): accumulate zymostenol
cholesterol in OPCs (FIG. 1B) [1]: produce lesser amounts of cholesterol
zymostenol in OPCs (FIG. 1B) [1]: accumulate zymostenol
Structure (SMILES): CCN(C/C=C\c1ccc(C2CCCCC2)c(Cl)c1)C1CCCCC1 [Cis-N-cyclohexyl-N-ethyl-3-(3-chloro-4-cyclohexylphenyl)prop-2-enylamine]
